Measurements taken from PMC8175350, “Drug repurposing screens identify chemical entities for the development of COVID-19 interventions” (Nature Communications, 2021).
Where a name gives a salt, the structure may show the parent alone. Read-outs that look alike come from different tables or passages of the source.

Tests used:
Calu-3 cells [1] = tested on: Calu-3 cells
[2] = Uninfected HeLa-ACE2 24 h live/dead cytotoxicity counter screen; format: cell-based, human; details: human, uninfected HeLa-ACE2 cells
HeLa-ACE2 cells [3] = test: as above; format: cell-based, human; details: for HeLa-ACE2 uninfected cytotoxicity Sinf Average (%): Sinf average of the curves; for HeLa-ACE2 uninfected cytotoxicity Sinf Average: curve-fit effect at infinite concentration
SARS-CoV-2 [4] = test: microbe, parasite or virus in culture; format: cell-based; details: for Emax: Severe acute respiratory syndrome coronavirus 2, Calu-3, 48 h
in vitro = details: human
Calu-3 cells [5] = test: cells; details: Homo sapiens; for Emax: Calu-3, 48 h
SARS-CoV-2 [6] = test: microbe, parasite or virus in culture; format: cell-based; details: for Emax: Severe acute respiratory syndrome coronavirus 2, HeLa-ACE2, 24 h, curve-fit effect at infinite concentration, average, read-out: HeLa-ACE2 CoV-2 Sinf Average
HeLa-ACE2 cells [7] = test: cells; details: Homo sapiens
SARS-CoV-2 [8] = test: microbe, parasite or virus in culture; format: cell-based; details: HeLa-ACE2
[9] = geometric mean of replicates, read-out: HeLa-ACE2 uninfected cytotoxicity CC50 GeoMean
[10] = Sinf average of the curves, read-out: Calu-3 CoV-2 Sinf Average (%)
[11] = Severe acute respiratory syndrome coronavirus 2, Calu-3, geometric mean of replicates, read-out: Calu-3 CoV-2 EC50 GeoMean
[12] = Calu-3 uninfected cytotoxicity CC50 GeoMean (µM)
[13] = Calu-3, read-out: Calu-3 cell count EC50 GeoMean (µM), geometric mean of replicates
[14] = Severe acute respiratory syndrome coronavirus 2, HeLa-ACE2, geometric mean of replicates, read-out: HeLa-ACE2 CoV-2 EC50 GeoMean
[15] = HeLa-ACE2, read-out: HeLa-ACE2 cell count EC50 GeoMean (µM), geometric mean of replicates
[16] = read-out: Calu-3 cell count Sinf Average (%)
[17] = unrounded geometric mean, read-out: HeLa-ACE2 uninfected cytotoxicity CC50 GeoMean
[18] = curve-fit effect at infinite concentration, average, read-out: Calu-3 CoV-2 Sinf Average
[19] = Severe acute respiratory syndrome coronavirus 2, Calu-3, unrounded geometric mean, read-out: Calu-3 CoV-2 EC50 GeoMean
[20] = Calu-3 uninfected cytotoxicity CC50 GeoMean
[21] = read-out: Calu-3 cell count Sinf Average
[22] = Calu-3, read-out: Calu-3 cell count EC50 GeoMean, unrounded geometric mean
[23] = Severe acute respiratory syndrome coronavirus 2, HeLa-ACE2, unrounded geometric mean, read-out: HeLa-ACE2 CoV-2 EC50 GeoMean
[24] = HeLa-ACE2, read-out: HeLa-ACE2 cell count EC50 GeoMean, unrounded geometric mean
[25] = Calu-3 uninfected cytotoxicity CC50 GeoMean, unrounded geometric mean
[26] = reconfirmed hits, read-out: HeLa-ACE2 Uninf. cells CC50
[27] = Severe acute respiratory syndrome coronavirus 2, Calu-3, reconfirmed hits, read-out: Calu-3 SARS-CoV-2 EC50
[28] = Severe acute respiratory syndrome coronavirus 2, HeLa-ACE2, reconfirmed hits, read-out: HeLa-ACE2 SARS-CoV-2 EC50

SMILES	uninfected Calu-3 CC50 [μM] (Calu-3 cells [1])	CC50 at 24 h [2, 9] [µM]	Emax (SARS-CoV-2 [4]; [10]) [%]	EC50 (SARS-CoV-2 [4]; [11]) [µM]	CC50 at 48 h (in vitro; [12]) [µM]	EC50 (Calu-3 cells [5]; [13]) [µM]	EC50 (SARS-CoV-2 [6]; [14]) [µM]	EC50 (HeLa-ACE2 cells [7]; [15]) [µM]	Emax (Calu-3 cells [5]; [16]) [%]	CC50 at 24 h [2, 17] [µM]	Emax (SARS-CoV-2 [4]; [18]) [%]	EC50 (SARS-CoV-2 [4]; [19]) [µM]	Emax (Calu-3 cells [5]; [21]) [%]	other results
N#Cc1cccc(C(C(=O)NCC(c2ccccc2)c2ccccc2)N(CCc2c[nH]cn2)C(=O)c2ccccc2C(=O)c2ccccc2)c1 (centres unmarked) [GENZ-29155]	> 29.867 ×÷ 1 (n=3) μM	> 38.5	79	> 4.66	> 29.9	> 9.98	> 9.59	> 9.59	–	–	–	–	–	Calu-3 uninfected cytotoxicity Sinf Average (%) (Calu-3 cells [1]; human, 48 h): 0%; HeLa-ACE2 uninfected cytotoxicity Sinf Average (%) (HeLa-ACE2 cells [3]): -67%; HeLa-ACE2 CoV-2 Sinf Average (%) (SARS-CoV-2 [6]; Sinf average of the curves): -67%
O[C@@H]1CO[C@H]2[C@@H]1OC[C@H]2Oc1nc2nc(-c3ccc(-c4ccccc4)cc3)c(Cl)cc2[nH]1 [MK-8722]	> 29.867 ×÷ 1 (n=3) μM	> 37.4	100	2.73	> 29.9	> 5.66	> 9.59	> 9.59	100	–	–	–	–	Calu-3 uninfected cytotoxicity Sinf Average (%) (Calu-3 cells [1]; human, 48 h): -95%; HeLa-ACE2 uninfected cytotoxicity Sinf Average (%) (HeLa-ACE2 cells [3]): -100%
CNC(=O)n1ccc2cc(Oc3ccnc(NC(=O)c4ccc(C5CCN(CCO)CC5)cc4)c3)c(OCCOC)cc21 [E-7090]	–	–	–	–	–	–	–	–	–	21.2	62	0.753	73	uninfected Calu-3 CC50 (Calu-3 cells [1]): 14.98 ×÷ 1.32 (n=3) μM; Calu-3 uninfected cytotoxicity Sinf Average (Calu-3 cells [1]; human, 48 h): -97%; HeLa-ACE2 uninfected cytotoxicity Sinf Average (HeLa-ACE2 cells [3]): -100%; CC50 at 48 h (in vitro; [20]): 15 µM; EC50 (Calu-3 cells [5]; [22]): > 2.59 µM; Emax (SARS-CoV-2 [6]): 100%; EC50 (SARS-CoV-2 [6]; [23]): 2.64 µM; EC50 (HeLa-ACE2 cells [7]; [24]): > 9.59 µM
C=CC(=O)Nc1cc(Nc2nccc(-c3cn(C)c4ccccc34)n2)c(OC)cc1N(C)CCN(C)C [Osimertinib]	–	–	–	–	–	–	–	–	–	–	–	–	–	SI in Calu-3 (SARS-CoV-2 [4]; CC50/EC50): < 2; EC50 ratio between the standard 24 h and the TOA assay (SARS-CoV-2 [8]): > 8
CCCCCC[C@H]1C(=O)O[C@H](C)[C@H](NC(=O)c2cccc(NC=O)c2O)C(=O)O[C@@H](C)[C@@H]1OC(=O)CC(C)C [Antimycin A]	–	> 39.8	93	< 0.0277	–	0.22	> 9.59	> 9.59	48	–	–	–	–	Calu-3 uninfected cytotoxicity CC50 GeoMean (Calu-3 cells [1]; human): > 0.6084 µM; uninfected Calu-3 CC50 [μM] (Calu-3 cells [1]; human): > 0.608 ×÷ 246.09 (n=2) μM; HeLa-ACE2 uninfected cytotoxicity Sinf Average (%) (HeLa-ACE2 cells [3]): -100%
CN(C)C(=O)COC(=O)Cc1ccc(OC(=O)c2ccc(NC(=N)N)cc2)cc1 [Camostat mesylate]	–	–	–	–	–	–	–	–	–	> 39.8	89	0.0536	78	CC50 (in vitro; [25]): > 29.9 µM; EC50 (Calu-3 cells [5]; [22]): 0.0913 µM; EC50 (SARS-CoV-2 [6]; [23]): > 9.59 µM; EC50 (HeLa-ACE2 cells [7]; [24]): > 9.59 µM
C[C@]12O[C@H](C[C@]1(O)CO)n1c3ccccc3c3c4c(c5c6ccccc6n2c5c31)CNC4=O [Lestaurtinib]	–	–	–	–	–	–	–	–	–	0.758	91	0.674	100	Calu-3 uninfected cytotoxicity Sinf Average (Calu-3 cells [1]; human): -98%; CC50 at 24 h ([2]; uninfected cells, Fig. 2b group, read-out: HeLa-ACE2 CC50): ≤ 3 µM; HeLa-ACE2 uninfected cytotoxicity Sinf Average (HeLa-ACE2 cells [3]): -100%; CC50 (in vitro; [25]): > 20.1 µM; EC50 (Calu-3 cells [5]; [22]): > 4.71 µM; Emax (SARS-CoV-2 [6]): 99%; EC50 (SARS-CoV-2 [6]; [23]): 0.546 µM; Emax (HeLa-ACE2 cells [7]; HeLa-ACE2, 24 h, read-out: HeLa-ACE2 cell count Sinf Average): 102%; EC50 (HeLa-ACE2 cells [7]; [24]): 0.614 µM
CC(=O)N1C[C@H](O)C[C@H]1C(=O)N[C@@H](CCCNC(=N)N)C(=O)c1nc2ccccc2s1 [RWJ-56423]	> 29.867 ×÷ 1 (n=3) μM	> 39.8	89	1.23	> 29.9	2.85	> 9.59	> 9.59	100	–	–	–	–	CC50 at 24 h [2, 26]: > 40 µM; EC50 (SARS-CoV-2 [4]; [27]): 1.23 µM; CC50 at 48 h (in vitro; Calu-3 Uninf. cells CC50 (µM)): > 30 µM; EC50 (SARS-CoV-2 [6]; [28]): > 9.6 µM
N=C(N)c1ccc2cc(OC(=O)c3ccc(CNC(=O)CCCC(=O)O)o3)ccc2c1 [TO-195]	> 29.867 ×÷ 1 (n=3) μM	> 39.8	91	0.657	> 29.9	1.16	> 6.42	> 9.59	84	–	–	–	–	Calu-3 uninfected cytotoxicity Sinf Average (%) (Calu-3 cells [1]; human, 48 h): -100%; CC50 at 24 h [2, 26]: > 40 µM; EC50 (SARS-CoV-2 [4]; [27]): 0.657 µM; CC50 at 48 h (in vitro; Calu-3 Uninf. cells CC50 (µM)): > 30 µM; EC50 (SARS-CoV-2 [6]; [28]): > 6.4 µM
CC(=N)N1CCC(Oc2ccc(N(Cc3ccc4ccc(C(=N)N)cc4c3)S(=O)(=O)CC(=O)O)cc2)CC1 [YM 60828]	> 29.867 ×÷ 1 (n=3) μM	> 39.8	–	3.18	> 29.9	6.81	> 9.59	> 9.59	100	–	–	–	–	–
N=C(N)Nc1ccc(C(=O)Oc2ccc(S(N)(=O)=O)cc2)cc1 [Ono-3307]	> 29.867 ×÷ 1 (n=3) μM	> 39.8	96	1.6	> 29.9	3.58	> 9.59	> 9.59	99	–	–	–	–	CC50 at 24 h [2, 26]: > 40 µM; EC50 (SARS-CoV-2 [4]; [27]): 1.6 µM; CC50 at 48 h (in vitro; Calu-3 Uninf. cells CC50 (µM)): > 30 µM; EC50 (SARS-CoV-2 [6]; [28]): > 9.6 µM
NC(N)=Nc1ncc(Cl)c2ccc(-c3cccc(C(=O)O)c3)cc12 [UK-356202]	> 29.875 ×÷ 1 (n=2) μM	> 39.8	85	1.92	> 29.9	> 7.28	> 9.59	> 9.59	98	–	–	–	–	–
CCc1ccc(C2=CC(C)(C)Sc3ccc(C#Cc4ccc(C(=O)O)cc4)cc32)cc1 [AGN-194310]	–	–	–	–	–	–	–	–	–	> 39.8	85	0.597	100	uninfected Calu-3 CC50 (Calu-3 cells [1]): > 29.867 ×÷ 1 (n=3) μM; Calu-3 uninfected cytotoxicity Sinf Average (Calu-3 cells [1]; human): -100%; CC50 (in vitro; [20]): > 29.9 µM; EC50 (Calu-3 cells [5]; Calu-3, read-out: Calu-3 cell count EC50 GeoMean): > 7.77 µM; EC50 (SARS-CoV-2 [6]; Severe acute respiratory syndrome coronavirus 2, HeLa-ACE2, read-out: HeLa-ACE2 CoV-2 EC50 GeoMean): > 9.59 µM; EC50 (HeLa-ACE2 cells [7]; HeLa-ACE2, read-out: HeLa-ACE2 cell count EC50 GeoMean): > 9.59 µM
